# Patent publication US6693216B2, “Calcium double salts” (Nutrinova Nutrition Specialties & Food Ingredients GmbH, priority 2000, dated 2004)
# Where two headings read alike, the source gives them in different places.
# Legend:
# [1] = sealed
# Excerpt: Salts prepared as in example 1 were dried, stored under the specified conditions without the addition of other substances and checked at regular intervals visually for discoloration: […]
# Bacilli = settings: Part II, 1 g/l in apple juice pH 4.5, 25° C.
# Molds II = settings: Part II, 1 g/l in apple juice pH 4.5, 25° C.
# Yeasts = settings: Part II, 1 g/l in apple juice pH 4.5, 25° C.
# Molds I = settings: Part II, 1 g/l in apple juice pH 4.5, 25° C.
# Acetic acid bacteria = settings: Part II, 1 g/l in apple juice pH 4.5, 25° C.
# Gram-positive bacteria = settings: Part II, 1 g/l in apple juice pH 4.5, 25° C.
# Thermophilic bacilli = settings: Part II, 1 g/l in apple juice pH 4.5, 25° C.
# Lactic acid bacteria = settings: Part II, 1 g/l in apple juice pH 4.5, 25° C.
# Clostridia = settings: Part II, 1 g/l in apple juice pH 4.5, 25° C.
# Gram-negative bacteria = settings: Part II, 1 g/l in apple juice pH 4.5, 25° C.
# [2] = 1 day after inoculation (3.3 × 10^4)
# [3] = 3 days after inoculation (3.3 × 10^4)
# [4] = 7 days after inoculation (3.3 × 10^4)
# [5] = 14 days after inoculation (3.3 × 10^4)
# [6] = 1 day after inoculation (2.5 × 10^4)
# [7] = 3 days after inoculation (2.5 × 10^4)
# [8] = 7 days after inoculation (2.5 × 10^4)
# [9] = 14 days after inoculation (2.5 × 10^4)
# [10] = 1 day after inoculation (2.6 × 10^4)
# [11] = 3 days after inoculation (2.6 × 10^4)
# [12] = 7 days after inoculation (2.6 × 10^4)
# [13] = 14 days after inoculation (2.6 × 10^4)
# [14] = 1 day after inoculation (2.2 × 10^4)
# [15] = 3 days after inoculation (2.2 × 10^4)
# [16] = 7 days after inoculation (2.2 × 10^4)
# [17] = 14 days after inoculation (2.2 × 10^4)
# [18] = 1 day after inoculation (2.8 × 10^4)
# [19] = 3 days after inoculation (2.8 × 10^4)
# [20] = 7 days after inoculation (2.8 × 10^4)
# [21] = 14 days after inoculation (2.8 × 10^4)
# [22] = 1 day after inoculation (2.1 × 10^4)
# [23] = 3 days after inoculation (2.1 × 10^4)
# [24] = 7 days after inoculation (2.1 × 10^4)
# [25] = 14 days after inoculation (2.1 × 10^4)
# [26] = 1 day after inoculation (1.3 × 10^4)
# [27] = 3 days after inoculation (1.3 × 10^4)
# [28] = 7 days after inoculation (1.3 × 10^4)
# [29] = 14 days after inoculation (1.3 × 10^4)
# [30] = 1 day after inoculation (2.7 × 10^4)
# [31] = 3 days after inoculation (2.7 × 10^4)
# [32] = 7 days after inoculation (2.7 × 10^4)
# [33] = 14 days after inoculation (2.7 × 10^4)
# [34] = 1 day after inoculation (2.9 × 10^4)
# [35] = 3 days after inoculation (2.9 × 10^4)
# [36] = 7 days after inoculation (2.9 × 10^4)
# [37] = 14 days after inoculation (2.9 × 10^4)
compound,measurement,setting,value
C/C=C/C=C/C(=O)[O-].O=C[O-].[Ca+2],Time after yellow-brown discoloration of a 1% strength aqueous solution,[1]; dark at 7° C.,12 months/>12 months
same,Time after yellow-brown discoloration of the powder,[1]; dark at 7° C.,>12 months />12 months
same,Time after yellow-brown discoloration of a 1% strength aqueous solution,[1]; dark at 25° C.,12 months/>12 months
same,Time after yellow-brown discoloration of the powder,[1]; dark at 25° C.,>12 months />12 months
same,Time after yellow-brown discoloration of a 1% strength aqueous solution,[1]; under sunlight at 7° C.,12 months/>12 months
same,Time after yellow-brown discoloration of the powder,[1]; under sunlight at 7° C.,12 months/>12 months
same,Time after yellow-brown discoloration of a 1% strength aqueous solution,[1]; under sunlight at 25° C.,12 months/>12 months
same,Time after yellow-brown discoloration of the powder,[1]; under sunlight at 25° C.,12 months/>12 months
same,"Number of surviving microorganisms per g of contaminated sample, Bacilli",Bacilli; [2],3.2 × 10^3 CFU/g
same,"Number of surviving microorganisms per g of contaminated sample, Bacilli",Bacilli; [3],1.8 × 10^3 CFU/g
same,"Number of surviving microorganisms per g of contaminated sample, Bacilli",Bacilli; [4],1.7 × 10^3 CFU/g
same,"Number of surviving microorganisms per g of contaminated sample, Bacilli",Bacilli; [5],1.8 × 10^3 CFU/g
same,"Number of surviving microorganisms per g of contaminated sample, Molds II",Molds II; [6],3.9 × 10^3 CFU/g
same,"Number of surviving microorganisms per g of contaminated sample, Molds II",Molds II; [7],<100 CFU/g
same,"Number of surviving microorganisms per g of contaminated sample, Molds II",Molds II; [8],<10 CFU/g
same,"Number of surviving microorganisms per g of contaminated sample, Molds II",Molds II; [9],<10 CFU/g
same,"Number of surviving microorganisms per g of contaminated sample, Yeasts",Yeasts; [10],1.3 × 10^4 CFU/g
same,"Number of surviving microorganisms per g of contaminated sample, Yeasts",Yeasts; [11],4.3 × 10^3 CFU/g
same,"Number of surviving microorganisms per g of contaminated sample, Yeasts",Yeasts; [12],<100 CFU/g
same,"Number of surviving microorganisms per g of contaminated sample, Yeasts",Yeasts; [13],<10 CFU/g
same,"Number of surviving microorganisms per g of contaminated sample, Molds I",Molds I; [14],3.8 × 10^3 CFU/g
same,"Number of surviving microorganisms per g of contaminated sample, Molds I",Molds I; [15],2.0 × 10^2 CFU/g
same,"Number of surviving microorganisms per g of contaminated sample, Molds I",Molds I; [16],25 CFU/g
same,"Number of surviving microorganisms per g of contaminated sample, Molds I",Molds I; [17],10 CFU/g
same,"Number of surviving microorganisms per g of contaminated sample, Acetic acid bacteria",Acetic acid bacteria; [18],2.1 × 10^4 CFU/g
same,"Number of surviving microorganisms per g of contaminated sample, Acetic acid bacteria",Acetic acid bacteria; [19],1.6 × 10^4 CFU/g
same,"Number of surviving microorganisms per g of contaminated sample, Acetic acid bacteria",Acetic acid bacteria; [20],7.6 × 10^3 CFU/g
same,"Number of surviving microorganisms per g of contaminated sample, Acetic acid bacteria",Acetic acid bacteria; [21],2.6 × 10^4 CFU/g
same,"Number of surviving microorganisms per g of contaminated sample, Gram-positive bacteria",Gram-positive bacteria; [22],2.1 × 10^4 CFU/g
same,"Number of surviving microorganisms per g of contaminated sample, Gram-positive bacteria",Gram-positive bacteria; [23],8.5 × 10^3 CFU/g
same,"Number of surviving microorganisms per g of contaminated sample, Gram-positive bacteria",Gram-positive bacteria; [24],6.8 × 10^2 CFU/g
same,"Number of surviving microorganisms per g of contaminated sample, Gram-positive bacteria",Gram-positive bacteria; [25],<10 CFU/g
same,Preservative action against the microorganisms used,"all microorganisms used; 1 g/l in apple juice pH 4.5, up to 14 days","acts well and persistently against all microorganisms used, except for acetic acid bacteria and bacilli"
same,Preservative action compared with the single salts,"all microorganisms used; same concentration, 1 g/l in apple juice pH 4.5","acts surprisingly better than calcium formate (in particular against lactic acid bacteria, yeasts and molds) or calcium sorbate (in particular against Gram-negative bacteria) used alone"
same,"Number of surviving microorganisms per g of contaminated sample, Thermophilic bacilli",Thermophilic bacilli; [26],2.0 × 10^3 CFU/g
same,"Number of surviving microorganisms per g of contaminated sample, Thermophilic bacilli",Thermophilic bacilli; [27],3.0 × 10^2 CFU/g
same,"Number of surviving microorganisms per g of contaminated sample, Thermophilic bacilli",Thermophilic bacilli; [28],<10 CFU/g
same,"Number of surviving microorganisms per g of contaminated sample, Thermophilic bacilli",Thermophilic bacilli; [29],<10 CFU/g
same,"Number of surviving microorganisms per g of contaminated sample, Lactic acid bacteria",Lactic acid bacteria; [30],3.9 × 10^3 CFU/g
same,"Number of surviving microorganisms per g of contaminated sample, Lactic acid bacteria",Lactic acid bacteria; [31],1.5 × 10^3 CFU/g
same,"Number of surviving microorganisms per g of contaminated sample, Lactic acid bacteria",Lactic acid bacteria; [32],<10 CFU/g
same,"Number of surviving microorganisms per g of contaminated sample, Lactic acid bacteria",Lactic acid bacteria; [33],<10 CFU/g
same,"Number of surviving microorganisms per g of contaminated sample, Clostridia",Clostridia; [34],1.1 × 10^3 CFU/g
same,"Number of surviving microorganisms per g of contaminated sample, Clostridia",Clostridia; [35],<100 CFU/g
same,"Number of surviving microorganisms per g of contaminated sample, Clostridia",Clostridia; [36],100 CFU/g
same,"Number of surviving microorganisms per g of contaminated sample, Clostridia",Clostridia; [37],<10 CFU/g
same,"Number of surviving microorganisms per g of contaminated sample, Gram-negative bacteria",Gram-negative bacteria; [30],1.7 × 10^4 CFU/g
same,"Number of surviving microorganisms per g of contaminated sample, Gram-negative bacteria",Gram-negative bacteria; [31],2.5 × 10^3 CFU/g
same,"Number of surviving microorganisms per g of contaminated sample, Gram-negative bacteria",Gram-negative bacteria; [32],2.0 × 10^3 CFU/g
same,"Number of surviving microorganisms per g of contaminated sample, Gram-negative bacteria",Gram-negative bacteria; [33],<10 CFU/g
Calcium Sorbate,"Number of surviving microorganisms per g of contaminated sample, Bacilli",Bacilli; [2],2.8 × 10^3 CFU/g
same,"Number of surviving microorganisms per g of contaminated sample, Bacilli",Bacilli; [3],1.8 × 10^3 CFU/g
same,"Number of surviving microorganisms per g of contaminated sample, Bacilli",Bacilli; [4],1.3 × 10^3 CFU/g
same,"Number of surviving microorganisms per g of contaminated sample, Bacilli",Bacilli; [5],1.2 × 10^3 CFU/g
same,"Number of surviving microorganisms per g of contaminated sample, Molds II",Molds II; [6],6.5 × 10^3 CFU/g
same,"Number of surviving microorganisms per g of contaminated sample, Molds II",Molds II; [7],<100 CFU/g
same,"Number of surviving microorganisms per g of contaminated sample, Molds II",Molds II; [8],<10 CFU/g
same,"Number of surviving microorganisms per g of contaminated sample, Molds II",Molds II; [9],<10 CFU/g
same,"Number of surviving microorganisms per g of contaminated sample, Yeasts",Yeasts; [10],2.3 × 10^4 CFU/g
same,"Number of surviving microorganisms per g of contaminated sample, Yeasts",Yeasts; [11],1.0 × 10^4 CFU/g
same,"Number of surviving microorganisms per g of contaminated sample, Yeasts",Yeasts; [12],<100 CFU/g
same,"Number of surviving microorganisms per g of contaminated sample, Yeasts",Yeasts; [13],<10 CFU/g
same,"Number of surviving microorganisms per g of contaminated sample, Molds I",Molds I; [14],3.9 × 10^3 CFU/g
same,"Number of surviving microorganisms per g of contaminated sample, Molds I",Molds I; [15],<100 CFU/g
same,"Number of surviving microorganisms per g of contaminated sample, Molds I",Molds I; [16],<10 CFU/g
same,"Number of surviving microorganisms per g of contaminated sample, Molds I",Molds I; [17],<10 CFU/g
same,"Number of surviving microorganisms per g of contaminated sample, Acetic acid bacteria",Acetic acid bacteria; [18],1.5 × 10^4 CFU/g
same,"Number of surviving microorganisms per g of contaminated sample, Acetic acid bacteria",Acetic acid bacteria; [19],1.4 × 10^4 CFU/g
same,"Number of surviving microorganisms per g of contaminated sample, Acetic acid bacteria",Acetic acid bacteria; [20],2.0 × 10^4 CFU/g
same,"Number of surviving microorganisms per g of contaminated sample, Acetic acid bacteria",Acetic acid bacteria; [21],1.3 × 10^5 CFU/g
same,"Number of surviving microorganisms per g of contaminated sample, Gram-positive bacteria",Gram-positive bacteria; [22],2.1 × 10^4 CFU/g
same,"Number of surviving microorganisms per g of contaminated sample, Gram-positive bacteria",Gram-positive bacteria; [23],6.4 × 10^3 CFU/g
same,"Number of surviving microorganisms per g of contaminated sample, Gram-positive bacteria",Gram-positive bacteria; [24],<10 CFU/g
same,"Number of surviving microorganisms per g of contaminated sample, Gram-positive bacteria",Gram-positive bacteria; [25],<10 CFU/g
same,"Number of surviving microorganisms per g of contaminated sample, Thermophilic bacilli",Thermophilic bacilli; [26],1.4 × 10^3 CFU/g
same,"Number of surviving microorganisms per g of contaminated sample, Thermophilic bacilli",Thermophilic bacilli; [27],5.0 × 10^2 CFU/g
same,"Number of surviving microorganisms per g of contaminated sample, Thermophilic bacilli",Thermophilic bacilli; [28],<10 CFU/g
same,"Number of surviving microorganisms per g of contaminated sample, Thermophilic bacilli",Thermophilic bacilli; [29],<10 CFU/g
same,"Number of surviving microorganisms per g of contaminated sample, Lactic acid bacteria",Lactic acid bacteria; [30],3.4 × 10^3 CFU/g
same,"Number of surviving microorganisms per g of contaminated sample, Lactic acid bacteria",Lactic acid bacteria; [31],2.0 × 10^3 CFU/g
same,"Number of surviving microorganisms per g of contaminated sample, Lactic acid bacteria",Lactic acid bacteria; [32],<100 CFU/g
same,"Number of surviving microorganisms per g of contaminated sample, Lactic acid bacteria",Lactic acid bacteria; [33],<10 CFU/g
same,"Number of surviving microorganisms per g of contaminated sample, Clostridia",Clostridia; [34],2.2 × 10^3 CFU/g
same,"Number of surviving microorganisms per g of contaminated sample, Clostridia",Clostridia; [35],<100 CFU/g
same,"Number of surviving microorganisms per g of contaminated sample, Clostridia",Clostridia; [36],<10 CFU/g
same,"Number of surviving microorganisms per g of contaminated sample, Clostridia",Clostridia; [37],<10 CFU/g
same,"Number of surviving microorganisms per g of contaminated sample, Gram-negative bacteria",Gram-negative bacteria; [30],1.7 × 10^4 CFU/g
same,"Number of surviving microorganisms per g of contaminated sample, Gram-negative bacteria",Gram-negative bacteria; [31],1.0 × 10^4 CFU/g
same,"Number of surviving microorganisms per g of contaminated sample, Gram-negative bacteria",Gram-negative bacteria; [32],1.9 × 10^3 CFU/g
same,"Number of surviving microorganisms per g of contaminated sample, Gram-negative bacteria",Gram-negative bacteria; [33],2.7 × 10^3 CFU/g
